Experimental data published in patent US8324268B2, “Substituted furancarboxamides, and use thereof” (AiCuris GmbH & Co. KG, priority 2008, dated 2012).

Columns and labels:
HIV-1LAI = assay: H9 assay with wild-type HIV-1 (HIV-1LAI supernatant infection, AlamarBlue); type: cell-based; settings: Human immunodeficiency virus 1, H9 cells, 10% FCS
Experimental: For the mixture for a 96-well MTP, 3 million PBLs are pelleted, suspended in 1 ml of RPMI 1640 medium/10% FCS and incubated together with a suitable amount of HIV-1LAI (NIH AIDS Research & Reference Reagent Program, Germantown, USA) at 37° C. for 2 hours (pellet infection). Unadsorbed viruses are subsequently washed out with PBS, and the infected cells are pelleted again and suspended in 18 ml of RPMI 1640 medium/10% FCS/interleukin-2 (40 U/ml). 180 μl thereof are pipetted into each well of a white 96-well MTP with 20 μl of test substance in suitable dilution. Alternatively, after preparation of the substance dilutions in the MTP, the HIV is pipetted in together with the cells and is not washed out again (supernatant infection). In order to avoid edge effects, the wells at the edge of the MTP are not used for substance dilutions. The second vertical row of the MTP contains only infected cells (virus control) and the eleventh vertical row only uninfected cells (cell control), in each case in RPMI 1640 medium/10% FCS/interleukin-2 (40 U/ml). The other wells of the MTP contain the compounds of the invention in various concentrations starting from the third vertical row, from which the test substances are diluted in 3-fold steps up to the tenth vertical row 3^7-fold. The test substances are dissolved in DMSO, whereby the final DMSO concentration in the test mixture is 1%. The test mixtures are incubated at 37° C./5% CO2. After 5 and 7 days, 50 μl of cell-free supernatant are removed from each well to determine the amount of p24 present by means of a p24 ELISA (HIV-1 p24^CA Antigen Capture Assay Kit, NCI-Frederick Cancer Research and Development Center, Frederick, USA). From the resulting values of the photometric evaluation (450/620 nm) the EC50 values of the test substances are determined as the concentration at which the amount of p24 is 50% of the untreated infected cells.
Alternatively, H9 cells (ATCC, Wesel, Germany) are employed instead of PBLs for testing the test substances. H9 cells are incubated in RPMI 1640 medium with 2% or 10% FCS as a HIV-ILAI supernatant infection at 37° C./5% CO2, (20 μl of substance dilution and 80 μl of cells/virus per well) in accordance with the pattern described above for 5 days. Subsequently, 10 μl of AlamarBlue® (Invitrogen, Karlsruhe, Germany) are added to each well, and the MTPs are incubated at 37° C. for 3 hours before the fluorimetric evaluation takes place (544/590 nm). The resulting values are about 40 000 for the untreated uninfected cells and about 7000 for the untreated infected cells. In the low concentration range, the EC50 values of the test substances are determined as the concentration at which the fluorescence is 50% of the untreated uninfected cells (in each case subtracting the values of the untreated infected cells). In addition, in the high concentration range, the CC50 values of the test substances are determined as the concentration at which the fluorescence is 50% of the untreated uninfected cells (in each case subtracting the values of the untreated infected cells).

HIV-1NL4-3 K103N-Y181C = assay: Light assay with inhibitor-resistant HI reporter virus in MT4 7F2 cells; type: cell-based; settings: Human immunodeficiency virus 1, read-out: EC50 (nM) MT4 7F2 cells HIV-1NL4-3 K103N-Y181C 2% FCS
Experimental: (§1) For the mixture for a 96-well MTP, 3 million MT4 7F2 cells are pelleted, suspended in 1 ml of RPMI 1640 medium without phenol red (Invitrogen, Karlsruhe, Germany)/10% FCS/10% AIM-V (Invitrogen, Karlsruhe, Germany) and incubated together with a suitable amount of the corresponding HIV-1NL4-3 reporter virus at 37° C. for 2 hours (pellet infection). Unadsorbed viruses are subsequently washed out with PBS, and the infected cells are pelleted again and suspended in 8 ml of RPMI 1640 medium without phenol red/2% or 10% FCS/10% AIM-V. 80 μl thereof are pipetted into each well of a white 96-well MTP with 20 μl of test substance in suitable dilution. To avoid edge effects, the wells on the edge of the MTP are not used for substance dilutions. The second vertical row of the MTP contains only infected cells (virus control) and the eleventh vertical row only uninfected cells (cell control), in each case in RPMI 1640 medium without phenol red/2% or 10% FCS/10% AIM-V. The other wells of the MTP contain the compounds of the invention in various concentrations starting from the third vertical row, from which the test substances are diluted in 3-fold steps up to the tenth vertical row 3^7-fold. The test substances are dissolved in DMSO, whereby the final DMSO concentration in the test mixture is 1%. The test mixtures are incubated at 37° C./5% CO2 for five days and, after the addition of 15 μl of Lu164 substrate (5 mg/ml coelenterazine dissolved in 30 μM glutathione/DMSO, 100 mM NaCl, 1M MES, 100 mM glutathione), evaluated by luminometry. The resulting values are in the region of 1 000 000 RLUs (relative light units) for the virus control and 300 to 400 RLUs for the cell control. The EC50 values of the test substances are determined as the concentration at which the virus replication measured in RLUs is 50% of the untreated infected cells.

reverse transcriptase = molecular target: T1, reverse transcriptase (Human immunodeficiency virus type 1 group M subtype B, UniProt P03366); assay: Biochemical reverse transcriptase assay (Reverse Transcriptase Assay, colorimetric, Roche); settings: read-out: IC50 (nM) RT assay
T1 construct: negative control (mixture without reverse transcriptase); purchased Roche Diagnostics GmbH, Mannheim, Germany
Experimental: The “Reverse Transcriptase Assay, colorimetric” (Roche Diagnostics GmbH, Mannheim, Germany) is used in accordance with the manufacturer's information. The test substances are dissolved in DMSO and are used in the test diluted in 5-fold steps (final DMSO concentration 1%). The resulting values of the photometric evaluation (405/492 nm) are less than 0.1 for the negative control (mixture without reverse transcriptase) and are in the region of 1.5 for the positive control (mixture without test substance). The IC50 values of the test substances are determined as the concentration of the test substance dilution at which the measured optical density is 50% of the positive control.

HIV-1NL4-3 wt = assay: Light assay with wild-type HI reporter virus in MT4 7F2 cells; type: cell-based; settings: Human immunodeficiency virus 1, 2% FCS
Experimental: as §1

SMILES | EC50 (HIV-1LAI) | EC50 (HIV-1NL4-3 K103N-Y181C) | IC50 (reverse transcriptase) | EC50 (HIV-1NL4-3 wt)
O=C1CN(C(=O)c2cc(-c3cc(F)cc(Cl)c3)c(-c3ccc(F)c(Cl)c3)o2)CN1 [Example 11, 1-{[5-(3-Chloro-4-fluorophenyl)-4-(3-chloro-5-fluorophenyl)furan-2-yl]-carbonyl}imidazolidin-4-one] | 77 nM | 255 nM | 370 nM | 20 nM
N#Cc1cc(-c2oc(C(=O)N3CNC(=O)C3)cc2-c2cc(F)cc(Cl)c2)ccc1F [Example 23, 5-{3-(3-Chloro-5-fluorophenyl)-5-[(4-oxoimidazolidin-1-yl)carbonyl]furan-2-yl}-2-fluorobenzenecarbonitrile] | 18 nM | 100 nM | – | 2 nM
N#Cc1cc(-c2oc(C(=O)N3CCNC(=O)C3)cc2-c2cccc(Cl)c2)ccc1F [Example 24, 5-{3-(3-Chlorophenol)-5-[(3-oxopiperazin-1-yl)carbonyl]furan-2-yl}-2-fluorobenzenecarbonitrile] | 47 nM | 320 nM | – | 4 nM
O=C1CN(C(=O)c2cc(-c3cccc(Cl)c3)c(-c3ccc(F)c(Cl)c3)o2)CN1 [Example 25, 1-{[5-(3-Chloro-4-fluorophenyl)-4-(3-chlorophenyl)furan-2-yl]carbonyl}imidazolidin-4-one] | 225 nM | 250 nM | – | 18 nM
N#Cc1cc(-c2oc(C(=O)N3CNC(=O)C3)cc2-c2cccc(Cl)c2)ccc1F [Example 26, 5-{3-(3-Chlorophenyl)-5-[(4-oxoimidazolidin-1-yl)carbonyl]furan-2-yl}-2-fluorobenzenecarbonitrile] | 150 nM | 250 nM | – | 20 nM
COc1cccc(-c2oc(C(=O)N3CNC(=O)C3)cc2-c2cccc(Cl)c2)c1 [Example 27, 1-{[4-(3-Chlorophenyl)-5-(3-methoxyphenyl)furan-2-yl]carbonyl}imidazolidin-4-one] | 200 nM | 700 nM | – | 14 nM
Cc1cc(C)cc(-c2cc(C(=O)N3CCNC(=O)C3)oc2-c2cccc(Cl)c2)c1 [Example 28, 4-{[5-(3-Chlorophenyl)-4-(3,5-dimethylphenyl)furan-2-yl]carbonyl}piperazin-2-one] | 200 nM | 400 nM | – | 30 nM
COc1cccc(-c2cc(C(=O)N3CCNC(=O)C3)oc2-c2cccc(Cl)c2)c1 [Example 29, 4-{[5-(3-Chlorophenyl)-4-(3-methoxyphenyl)furan-2-yl]carbonyl}piperazin-2-one] | 450 nM | 400 nM | – | 53 nM
O=C1CN(C(=O)c2cc(-c3cccc(Cl)c3)c(-c3cccc(Cl)c3)o2)CCN1 [Example 30, 4-{[4,5-Bis(3-chlorophenyl)furan-2-yl]carbonyl}piperazin-2-one] | 200 nM | 650 nM | 750 nM | 25 nM
N#Cc1cc(F)cc(-c2cc(C(=O)N3CNC(=O)C3)oc2-c2ccc(F)c(Cl)c2)c1 [Example 31, 3-{2-(3-Chloro-4-fluorophenyl)-5-[(4-oxoimidazolidin-1-yl)carbonyl]furan-3-yl}-5-fluorobenzenecarbonitrile] | 80 nM | 80 nM | – | 8 nM
N#Cc1cc(F)cc(-c2cc(C(=O)N3CNC(=O)C3)oc2-c2cccc(Cl)c2)c1 [Example 32, 3-{2-(3-Chlorophenyl)-5-[(4-oxoimidazolidin-1-yl)carbonyl]furan-3-yl}-5-fluorobenzenecarbonitrile] | 70 nM | 150 nM | – | 2 nM
N#Cc1cc(F)cc(-c2cc(C(=O)N3CCNC(=O)C3)oc2-c2cccc(Cl)c2)c1 [Example 33, 3-{2-(3-Chlorophenyl)-5-[(3-oxopiperazin-1-yl)carbonyl]furan-3-yl}-5-fluorobenzenecarbonitrile] | 25 nM | 200 nM | – | < 1.5 nM
N#Cc1cc(F)cc(-c2cc(C(=O)N3CCOCC3)oc2-c2cccc(C#N)c2)c1 [Example 34, 3-[2-(3-Cyanophenyl)-5-(morpholin-4-ylcarbonyl)furan-3-yl]-5-fluorobenzenecarbonitrile] | 30 nM | 300 nM | – | < 1.5 nM
